Tested on: Cynomolgus monkey corneal endothelial cells
Assay: Immunostaining of Na+/K+-ATPase and ZO-1 in monkey corneal endothelial cells (Example 3)
Assay type: cell-based
Settings: monkey CEC treated with SB431542; control lost its staining
Description: Phosphatase inhibitor cocktail 2 (Sigma-Aldrich) and protease inhibitor cocktail (Nacalai Tesque, Inc., Kyoto city) were added to the aforementioned RIPA buffer. The obtained cell lysate was centrifuged (15,000 rpm, 10 minutes) where the supernatant thereof was collected, and the protein was quantitated using a BCA PROTEIN ASSAY KIT (PIERCE (catalog number: 23227)). Dissolution was performed using 100 μl dissolution buffer (Laemmli sample buffer) including 5 mM 2-mercaptoethanol (Nacalai Tesque (catalog number: 21418-42)). • Immunostaining: after washing cells which had reached confluency with PBS (Nissui, catalog number: 5913), the cells were fixed for 10 minutes with iced ethanol (Nacalai Tesque, catalog number: 14713-95) and acetic acid (WAKO catalog number:017-00256) (95:5).
Blocking was performed via incubation for 1 hour with 0.1% (vol/vol) polyethylene sorbitan monolaurate (Nacalai Tesque, catalog number: 28353-85) (TBS-T) and Tris buffered saline (10 mM Tris-HCl, pH7.4; 100 mM NaCl) with 10% fetal bovine serum. […]
Next, reaction was allowed for 1 hour at a room temperature with ALEXA FLUOR 488 (INVITROGEN (catalog number: A21206)) and ALEXA FLUOR 594 (INVITROGEN (catalog number: A21203)), diluted with TBS-T by 1,000 fold. […] After washing, bands were detected using an ECL-ADVAVCE Western Blotting Detection Kit (GE healthcare Japan (catalog number: RPN2135V)). […]

NC(=O)c1ccc(-c2nc(-c3ccc4c(c3)OCO4)c(-c3ccccn3)[nH]2)cc1 [SB431542]
plasma membrane staining of Na+/K+-ATPase and ZO-1 (immunostaining): characteristic plasma membrane staining of Na^+/K^+-ATPase and ZO-1

Source: patent publication US20230057984A1, “NORMALIZATION OF CULTURE OF CORNEAL ENDOTHELIAL CELLS” (KYOTO PREFECTURAL PUBLIC UNIVERSITY CORPORATION, priority 2011, published 2023)
